# Tests used:
# CfEcR-DEF mutant M125W = CfEcR-DEF mutant M125W (Choristoneura fumiferana, UniProt O77255, M408W); experiment: GAL4-driven luciferase reporter assay in NIH3T3 cells; format: cell-based; conditions: for Emax: NIH3T3, 40 h, read-out: Rel Max FI
# Protocol: (§1) This construct was prepared in the same way as in switch 1.1 above except wild-type CfEcR-DEF was replaced with mutant CfEcR-DEF comprising a ligand binding domain comprising a substitution mutation selected from Table 1 below.
# (§2) DNAs were transfected into mouse NIH3T3 cells (ATCC) as follows. Standard methods for culture and maintenance of the cells were followed. Cells were harvested and plated 96-well plates at 2,500 cells per well, in 50 μL of growth medium containing 10% fetal bovine serum (FBS). Twenty-four hours later, the cells were treated with 35 μL of serum-free growth medium containing either dimethylsulfoxide (DMSO; control) or a DMSO solution of ligand. The cells were then transfected using Superfect (Qiagen Inc.) transfection reagent. For each well, 0.625 μL of Superfect was mixed with 14.2 μL of serum-free growth medium. 0.16 μg of reporter construct and 0.04 μg of each receptor construct were added to the transfection reagent mix. The contents of the transfection mix were mixed in a vortex mixer and let stand at room temperature for 30 minutes. At the end of incubation, 15 μL of transfection mix was added to the cells. The cells were maintained at 37° C. and 5% CO2 for 48 hours in 5% FBS.
# (§3) Reporter Assays: Cells were harvested 40 hours after adding ligands. 125 μL of passive lysis buffer (part of Dual-Luciferase reporter assay system from Promega Corporation) were added to each well of the […] plate. The plates were placed on a rotary shaker for 15 minutes. Twenty μL of lysate were assayed. Luciferase activity was measured using Dual-Luciferase reporter assay system from Promega Corporation following the manufacturer's instructions. Fold induction (FI) activities were calculated by dividing relative light units (“RLU”) in ligand treated cells with RLU in DMSO treated cells (untreated control).
# [1] = biological target: CfEcR-DEF mutant T52V/A110P (Choristoneura fumiferana, UniProt O77255, A393P/T335V); experiment: as above; format: cell-based; conditions: for Emax: NIH3T3, 40 h, read-out: Rel Max FI
# Sequence of CfEcR-DEF mutant T52V/A110P (O77255 entry or part of it T335V/A393P): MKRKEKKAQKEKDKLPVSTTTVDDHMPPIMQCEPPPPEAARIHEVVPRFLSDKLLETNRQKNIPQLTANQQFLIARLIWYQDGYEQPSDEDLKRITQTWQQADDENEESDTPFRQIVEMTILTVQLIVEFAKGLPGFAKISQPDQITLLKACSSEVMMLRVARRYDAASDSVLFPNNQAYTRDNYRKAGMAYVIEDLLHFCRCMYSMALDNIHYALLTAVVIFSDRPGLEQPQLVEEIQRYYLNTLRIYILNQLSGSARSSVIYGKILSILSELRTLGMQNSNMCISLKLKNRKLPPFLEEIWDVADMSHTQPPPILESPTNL
# Sequence of CfEcR-DEF mutant T52V/A110P (P28702 299-449, stated change not applied, further chain): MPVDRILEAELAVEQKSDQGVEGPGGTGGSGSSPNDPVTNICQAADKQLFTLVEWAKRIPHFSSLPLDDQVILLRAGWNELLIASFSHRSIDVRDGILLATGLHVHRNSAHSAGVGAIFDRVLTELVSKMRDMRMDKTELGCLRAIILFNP
# Protocol: as §1, §2, §3
# [2] = biological target: CfEcR-DEF mutant V107I/Y127E/T52V (Choristoneura fumiferana, UniProt O77255, T335V/V390I/Y410E); experiment: as above; format: cell-based; conditions: for Emax: NIH3T3, 40 h, read-out: Rel Max FI
# Sequence of CfEcR-DEF mutant V107I/Y127E/T52V (P28702 299-449): as the sequence (P28702 299-449, stated change not applied, further chain) above
# Sequence of CfEcR-DEF mutant V107I/Y127E/T52V (O77255 entry or part of it T335V/V390I/Y410E): as the sequence (O77255 entry or part of it T335V/A393P) above, with V172I, P175A, Y192E counted along it
# Protocol: as §1, §2, §3
# CfEcR-DEF mutant F48N = CfEcR-DEF mutant F48N (Choristoneura fumiferana, UniProt O77255, F331N); experiment: as above; format: cell-based; conditions: for Emax: NIH3T3, 40 h, read-out: Rel Max FI
# Sequence of CfEcR-DEF mutant F48N (O77255 entry or part of it F331N): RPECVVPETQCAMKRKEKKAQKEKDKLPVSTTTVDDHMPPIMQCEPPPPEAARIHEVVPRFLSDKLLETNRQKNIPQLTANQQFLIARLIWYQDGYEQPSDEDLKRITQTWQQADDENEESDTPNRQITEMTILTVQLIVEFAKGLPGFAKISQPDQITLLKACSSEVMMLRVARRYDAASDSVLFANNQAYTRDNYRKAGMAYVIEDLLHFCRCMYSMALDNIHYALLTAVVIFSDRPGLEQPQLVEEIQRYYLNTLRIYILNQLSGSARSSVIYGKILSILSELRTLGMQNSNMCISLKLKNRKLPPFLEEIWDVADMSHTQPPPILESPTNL
# Sequence of CfEcR-DEF mutant F48N (P28702 299-449, further chain): as the sequence (P28702 299-449, stated change not applied, further chain) above
# Protocol: as §1, §2, §3
# [3] = biological target: CfEcR-DEF mutant V107I/Y127E/A110P (Choristoneura fumiferana, UniProt O77255, A393P/V390I/Y410E); experiment: cell-based; conditions: for Emax: NIH3T3, 40 h, read-out: Rel Max FI
# Sequence of CfEcR-DEF mutant V107I/Y127E/A110P (P28702 299-449, stated change not applied): as the sequence (P28702 299-449, stated change not applied, further chain) above
# Sequence of CfEcR-DEF mutant V107I/Y127E/A110P (O77255 entry or part of it V390I/A393P/Y410E): as the sequence (O77255 entry or part of it T335V/A393P) above, with V117T, V172I, Y192E counted along it
# Method in brief: (§4)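 Mutant CfEcR-DEF receptor and GAL4-driven luciferase reporter constructs transfected into mouse NIH3T3 cells with DMSO or ligand added; maintained 48 h at 37° C in 5% FBS, harvested 40 h after ligand addition. Dual-luciferase read-out; fold induction = RLU with ligand / RLU with DMSO.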
# CfEcR-DEF mutant L234I = CfEcR-DEF mutant L234I (Choristoneura fumiferana, UniProt O77255, L517I); experiment: cell-based; conditions: for Emax: NIH3T3, 40 h, read-out: Rel Max FI
# Sequence of CfEcR-DEF mutant L234I (P28702 299-449): as the sequence (P28702 299-449, stated change not applied, further chain) above
# Sequence of CfEcR-DEF mutant L234I (O77255 entry or part of it L517I): as the sequence (O77255 entry or part of it F331N) above, with N125F, L311I counted along it
# Method in brief: as §4
# CfEcR-DEF mutant F109N = CfEcR-DEF mutant F109N (Choristoneura fumiferana, UniProt O77255, F392N); experiment: cell-based; conditions: for Emax: NIH3T3, 40 h, read-out: Rel Max FI
# Sequence of CfEcR-DEF mutant F109N (P28702 299-449): as the sequence (P28702 299-449, stated change not applied, further chain) above
# Sequence of CfEcR-DEF mutant F109N (O77255 entry or part of it F392N): as the sequence (O77255 entry or part of it F331N) above, with N125F, F186N counted along it
# Method in brief: as §4
# CfEcR-DEF mutant M54W = CfEcR-DEF mutant M54W (Choristoneura fumiferana, UniProt O77255, M337W); experiment: cell-based; conditions: for Emax: NIH3T3, 40 h, read-out: Rel Max FI
# Sequence of CfEcR-DEF mutant M54W (O77255 entry or part of it M337W): as the sequence (O77255 entry or part of it F331N) above, with N125F, M131W counted along it
# Sequence of CfEcR-DEF mutant M54W (P28702 299-449, further chain): as the sequence (P28702 299-449, stated change not applied, further chain) above
# Method in brief: as §4
# CfEcR-DEF mutant V96L = CfEcR-DEF mutant V96L (Choristoneura fumiferana, UniProt O77255, V379L); experiment: cell-based; conditions: for Emax: NIH3T3, 40 h, read-out: Rel Max FI
# Sequence of CfEcR-DEF mutant V96L (O77255 entry or part of it V379L): as the sequence (O77255 entry or part of it T335V/A393P) above, with V117T, V161L, P175A counted along it
# Sequence of CfEcR-DEF mutant V96L (P28702 299-449, further chain): as the sequence (P28702 299-449, stated change not applied, further chain) above
# Method in brief: as §4
# CfEcR-DEF mutant V96S = CfEcR-DEF mutant V96S (Choristoneura fumiferana, UniProt O77255, V379S); experiment: cell-based; conditions: for Emax: NIH3T3, 40 h, read-out: Rel Max FI
# Sequence of CfEcR-DEF mutant V96S (O77255 entry or part of it V379S): as the sequence (O77255 entry or part of it T335V/A393P) above, with V117T, V161S, P175A counted along it
# Sequence of CfEcR-DEF mutant V96S (P28702 299-449, further chain): as the sequence (P28702 299-449, stated change not applied, further chain) above
# Method in brief: as §4
# CfEcR-DEF mutant T52L = CfEcR-DEF mutant T52L (Choristoneura fumiferana, UniProt O77255, T335L); experiment: cell-based; conditions: for Emax: NIH3T3, 40 h, read-out: Rel Max FI
# Sequence of CfEcR-DEF mutant T52L (P28702 298-449): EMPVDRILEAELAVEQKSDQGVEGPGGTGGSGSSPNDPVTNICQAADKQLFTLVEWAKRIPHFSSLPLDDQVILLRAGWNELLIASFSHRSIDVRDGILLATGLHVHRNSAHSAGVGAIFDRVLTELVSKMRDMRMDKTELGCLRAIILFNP
# Sequence of CfEcR-DEF mutant T52L (O77255 entry or part of it T335L): as the sequence (O77255 entry or part of it F331N) above, with N125F, T129L counted along it
# Method in brief: as §4
# [4] = tested on: CfEcR-DEF mutant V107I/Y127E; experiment: GAL4-driven luciferase reporter assay in NIH3T3 cells; format: cell-based, Choristoneura fumiferana; parameters: Concentration (mM) at max FI: unit not given here
# Protocol: as §1
# as §2, with “The contents of the transfection mix were mixed in a vortex mixer and let stand at room temperature for 30 minutes. At the end of incubation, 15 μL of transfection mix was added to the cells. The cells were maintained at 37° C. and 5% CO2 for 48 hours in 5% FBS.” left out
# Reporter Assays: Cells were harvested 40 hours after adding ligands. […] Luciferase activity was measured using Dual-Luciferase reporter assay system from Promega Corporation following the manufacturer's instructions. Fold induction (FI) activities were calculated by dividing relative light units (“RLU”) in ligand treated cells with RLU in DMSO treated cells (untreated control).
# CfEcR-DEF mutant M219A = CfEcR-DEF mutant M219A (Choristoneura fumiferana, UniProt O77255, M502A); experiment: as above; format: cell-based
# Sequence of CfEcR-DEF mutant M219A (O77255 entry or part of it M502A): as the sequence (O77255 entry or part of it F331N) above, with N125F, M296A counted along it
# Sequence of CfEcR-DEF mutant M219A (P28702 299-449, further chain): as the sequence (P28702 299-449, stated change not applied, further chain) above
# Protocol: as §1, §2, §3
# CfEcR-DEF mutant W238L = CfEcR-DEF mutant W238L (Choristoneura fumiferana, UniProt O77255, W521L); experiment: as above; format: cell-based
# Sequence of CfEcR-DEF mutant W238L (P28702 299-449): as the sequence (P28702 299-449, stated change not applied, further chain) above
# Sequence of CfEcR-DEF mutant W238L (O77255 entry or part of it W521L): as the sequence (O77255 entry or part of it F331N) above, with N125F, W315L counted along it
# Protocol: as §1, §2, §3
# CfEcR-DEF mutant M219Y = CfEcR-DEF mutant M219Y (Choristoneura fumiferana, UniProt O77255, M502Y); experiment: as above; format: cell-based
# Sequence of CfEcR-DEF mutant M219Y (P28702 299-449): as the sequence (P28702 299-449, stated change not applied, further chain) above
# Sequence of CfEcR-DEF mutant M219Y (O77255 entry or part of it M502Y): as the sequence (O77255 entry or part of it F331N) above, with N125F, M296Y counted along it
# Protocol: as §1, §2, §3
# CfEcR-DEF mutant L223Y = CfEcR-DEF mutant L223Y (Choristoneura fumiferana, UniProt O77255, L506Y); experiment: as above; format: cell-based
# Sequence of CfEcR-DEF mutant L223Y (P28702 299-449): as the sequence (P28702 299-449, stated change not applied, further chain) above
# Sequence of CfEcR-DEF mutant L223Y (O77255 entry or part of it L506Y): as the sequence (O77255 entry or part of it T335V/A393P) above, with V117T, P175A, L288Y counted along it
# Protocol: as §1, §2, §3
# CfEcR-DEF mutant T52M = CfEcR-DEF mutant T52M (Choristoneura fumiferana, UniProt O77255, T335M); experiment: as above; format: cell-based
# Sequence of CfEcR-DEF mutant T52M (O77255 entry or part of it T335M): as the sequence (O77255 entry or part of it F331N) above, with N125F, T129M counted along it
# Sequence of CfEcR-DEF mutant T52M (P28702 298-449, further chain): as the sequence (P28702 298-449) above
# Protocol: as §1, §2, §3
# CfEcR-DEF mutant L132N = experiment: as above; format: cell-based, Choristoneura fumiferana
# Protocol: as §1, §2, §3
# CfEcR-DEF mutant F109P = experiment: as above; format: cell-based, Choristoneura fumiferana
# Protocol: as §1, §2, §3
# CfEcR-DEF mutant I51N = experiment: as above; format: cell-based, Choristoneura fumiferana
# Protocol: as §1, §2, §3
# CfEcR-DEF mutant N119F = experiment: as above; format: cell-based, Choristoneura fumiferana
# Protocol: as §1, §2, §3
# [5] = NIH3T3, 40 h, read-out: Rel Max FI
# [6] = NIH3T3, mouse, 40 h, read-out: GS-E ligand max FI (relative to DMSO)
# Sequence of CfEcR-DEF mutant M125W (O77255 entry or part of it M408W): as the sequence (O77255 entry or part of it F331N) above, with N125F, M202W counted along it
# Sequence of CfEcR-DEF mutant M125W (P28702 299-449, further chain): as the sequence (P28702 299-449, stated change not applied, further chain) above
smiles,measurement,setting,value
"CCc1cccc(C(=O)NN(C(=O)c2cc(C)cc(C)c2)C(C)(C)C)c1C [RG-101691, 3,5-Dimethyl-benzoic acid N-tert-butyl-N′-(3-ethyl-2-methyl-benzoyl)-hydrazide]",EC50,CfEcR-DEF mutant M125W,4940 nM
same,Emax,CfEcR-DEF mutant M125W,74%
same,EC50,[1],240 nM
same,Emax,[1],66%
same,EC50,[2],20 nM
same,Emax,[2],88%
same,EC50,CfEcR-DEF mutant F48N,1730 nM
same,Emax,CfEcR-DEF mutant F48N,88%
same,EC50,[3],340 nM
same,Emax,[3],96%
same,EC50,CfEcR-DEF mutant L234I,940 nM
same,Emax,CfEcR-DEF mutant L234I,73%
same,EC50,CfEcR-DEF mutant F109N,3950 nM
same,Emax,CfEcR-DEF mutant F109N,85%
same,EC50,CfEcR-DEF mutant M54W,1630 nM
same,Emax,CfEcR-DEF mutant M54W,75%
same,EC50,CfEcR-DEF mutant V96L,1680 nM
same,Emax,CfEcR-DEF mutant V96L,62%
same,EC50,CfEcR-DEF mutant V96S,870 nM
same,Emax,CfEcR-DEF mutant V96S,90%
same,EC50,CfEcR-DEF mutant T52L,210 nM
same,Emax,CfEcR-DEF mutant T52L,74%
"CCc1c(OC)cccc1C(=O)NN(C(=O)c1cc(C)cc(C)c1)C(C)(C)C [RG-102240, N-(2-ethyl-3-methoxybenzoyl)-N′-(3,5-dimethylbenzoyl)-N′-tert-butylhydrazine]",GS-E ligand max FI (relative to DMSO),[4],3146
same,Concentration (mM) at max FI,[4]; GS-E ligand,10
same,EC50,CfEcR-DEF mutant M125W,3490 nM
same,Emax,CfEcR-DEF mutant M125W,100%
same,EC50,[1],330 nM
same,Emax,[1],100%
same,EC50,CfEcR-DEF mutant M219A,2900 nM
same,Emax,CfEcR-DEF mutant M219A; [5],100%
same,EC50,CfEcR-DEF mutant W238L,11100 nM
same,Emax,CfEcR-DEF mutant W238L; [5],100%
same,EC50,CfEcR-DEF mutant M219Y,820 nM
same,Emax,CfEcR-DEF mutant M219Y; [5],100%
same,EC50,CfEcR-DEF mutant L223Y,3150 nM
same,Emax,CfEcR-DEF mutant L223Y; [5],100%
same,EC50,[2],60 nM
same,Emax,[2],100%
same,EC50,CfEcR-DEF mutant F48N,750 nM
same,Emax,CfEcR-DEF mutant F48N,100%
same,EC50,CfEcR-DEF mutant T52M,6740 nM
same,Emax,"CfEcR-DEF mutant T52M; NIH3T3, 40 h, read-out: Rel MaxFI",100%
same,GS-E ligand max FI (relative to DMSO),CfEcR-DEF mutant L132N,785
same,Concentration (mM) at max FI,CfEcR-DEF mutant L132N; GS-E ligand,33.30 mM
same,GS-E ligand max FI (relative to DMSO),CfEcR-DEF mutant F109P,1
same,Concentration (mM) at max FI,CfEcR-DEF mutant F109P; GS-E ligand,10.00 mM
same,GS-E ligand max FI (relative to DMSO),CfEcR-DEF mutant I51N,1
same,Concentration (mM) at max FI,CfEcR-DEF mutant I51N; GS-E ligand,33.30 mM
same,Fold increase over WT,CfEcR-DEF mutant N119F; 1.6 nM ligand,1.22
same,Fold increase over WT,CfEcR-DEF mutant N119F; 8 nM ligand,0.73
same,Fold increase over WT,CfEcR-DEF mutant N119F; 40 nM ligand,0.06
same,Fold increase over WT,CfEcR-DEF mutant N119F; 200 nM ligand,0.01
same,Fold increase over WT,CfEcR-DEF mutant N119F; 1 μM ligand,0.08
same,Fold increase over WT,CfEcR-DEF mutant N119F; 5 μM ligand,0.59
same,EC50,[3],300 nM
same,Emax,[3],100%
same,maximal fold induction,[3]; [6],2210
same,Concentration (mM) at max FI,"[3]; mutant V107I/Y127E/A110P, GS-E ligand",10 mM
same,EC50,CfEcR-DEF mutant L234I,770 nM
same,Emax,CfEcR-DEF mutant L234I,100%
same,maximal fold induction,CfEcR-DEF mutant L234I; [6],2650
same,Concentration (mM) at max FI,"CfEcR-DEF mutant L234I; mutant L234I, GS-E ligand",10 mM
same,EC50,CfEcR-DEF mutant F109N,2700 nM
same,Emax,CfEcR-DEF mutant F109N,100%
same,maximal fold induction,CfEcR-DEF mutant F109N; [6],1510
same,Concentration (mM) at max FI,"CfEcR-DEF mutant F109N; mutant F109N, GS-E ligand",0.0333 mM
same,EC50,CfEcR-DEF mutant M54W,1170 nM
same,Emax,CfEcR-DEF mutant M54W,100%
same,maximal fold induction,CfEcR-DEF mutant M54W; [6],1680
same,Concentration (mM) at max FI,"CfEcR-DEF mutant M54W; mutant M54W, GS-E ligand",0.01 mM
same,EC50,CfEcR-DEF mutant V96L,~1000 nM
same,Emax,CfEcR-DEF mutant V96L,100%
same,maximal fold induction,CfEcR-DEF mutant V96L; [6],4380
same,Concentration (mM) at max FI,"CfEcR-DEF mutant V96L; mutant V96L, GS-E ligand",10 mM
same,EC50,CfEcR-DEF mutant V96S,1140 nM
same,Emax,CfEcR-DEF mutant V96S,100%
same,maximal fold induction,CfEcR-DEF mutant V96S; [6],1830
same,Concentration (mM) at max FI,"CfEcR-DEF mutant V96S; mutant V96S, GS-E ligand",33.3 mM
same,EC50,CfEcR-DEF mutant T52L,~500 nM
same,Emax,CfEcR-DEF mutant T52L,100%
same,maximal fold induction,CfEcR-DEF mutant T52L; [6],1130
same,Concentration (mM) at max FI,"CfEcR-DEF mutant T52L; mutant T52L, GS-E ligand",33.3 mM
